Assay results: paper PMC5209244 (Bioorganic & medicinal chemistry, 2016)
Counter-ions that a name gives are not always drawn.

How the values were obtained:
5-HT2CR = target: T1, 5-HT2CR (Homo sapiens, UniProt P28335); assay: NIMH-PDSP radioligand binding, 5-HT2C receptor
T1 sequence (P28335 33-458): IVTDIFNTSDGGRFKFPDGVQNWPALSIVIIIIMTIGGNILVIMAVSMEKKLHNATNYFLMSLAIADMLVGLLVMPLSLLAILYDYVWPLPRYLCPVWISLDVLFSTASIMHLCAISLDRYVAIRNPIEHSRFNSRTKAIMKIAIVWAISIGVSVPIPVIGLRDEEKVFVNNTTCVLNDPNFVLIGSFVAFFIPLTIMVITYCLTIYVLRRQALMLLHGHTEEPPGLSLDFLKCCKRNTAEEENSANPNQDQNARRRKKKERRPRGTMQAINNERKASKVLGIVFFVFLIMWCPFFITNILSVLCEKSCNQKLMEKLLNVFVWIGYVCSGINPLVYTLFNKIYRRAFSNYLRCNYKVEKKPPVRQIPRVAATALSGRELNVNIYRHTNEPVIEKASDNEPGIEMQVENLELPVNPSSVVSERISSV

SERT = SERT (Homo sapiens, UniProt P31645); assay: NIMH-PDSP radioligand binding, serotonin transporter
SERT, sequence (P31645 whole entry): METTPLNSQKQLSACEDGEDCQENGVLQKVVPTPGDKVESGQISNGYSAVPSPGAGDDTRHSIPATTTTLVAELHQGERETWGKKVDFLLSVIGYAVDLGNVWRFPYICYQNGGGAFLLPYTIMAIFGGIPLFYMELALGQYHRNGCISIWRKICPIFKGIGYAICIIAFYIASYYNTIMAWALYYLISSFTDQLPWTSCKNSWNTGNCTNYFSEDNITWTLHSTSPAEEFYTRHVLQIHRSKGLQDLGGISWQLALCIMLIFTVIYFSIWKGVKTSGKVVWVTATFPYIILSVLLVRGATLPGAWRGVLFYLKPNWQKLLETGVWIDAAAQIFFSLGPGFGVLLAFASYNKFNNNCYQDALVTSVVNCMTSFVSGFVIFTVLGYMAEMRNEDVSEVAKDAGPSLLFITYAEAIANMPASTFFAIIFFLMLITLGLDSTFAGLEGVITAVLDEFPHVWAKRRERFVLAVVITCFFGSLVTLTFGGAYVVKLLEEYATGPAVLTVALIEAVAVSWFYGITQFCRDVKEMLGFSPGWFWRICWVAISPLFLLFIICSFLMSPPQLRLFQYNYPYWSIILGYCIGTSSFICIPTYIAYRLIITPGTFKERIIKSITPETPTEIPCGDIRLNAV

5-HT2AR = 5-HT2AR (Homo sapiens, UniProt P28223); assay: NIMH-PDSP radioligand binding, 5-HT2A receptor
5-HT2AR, sequence (P28223 whole entry): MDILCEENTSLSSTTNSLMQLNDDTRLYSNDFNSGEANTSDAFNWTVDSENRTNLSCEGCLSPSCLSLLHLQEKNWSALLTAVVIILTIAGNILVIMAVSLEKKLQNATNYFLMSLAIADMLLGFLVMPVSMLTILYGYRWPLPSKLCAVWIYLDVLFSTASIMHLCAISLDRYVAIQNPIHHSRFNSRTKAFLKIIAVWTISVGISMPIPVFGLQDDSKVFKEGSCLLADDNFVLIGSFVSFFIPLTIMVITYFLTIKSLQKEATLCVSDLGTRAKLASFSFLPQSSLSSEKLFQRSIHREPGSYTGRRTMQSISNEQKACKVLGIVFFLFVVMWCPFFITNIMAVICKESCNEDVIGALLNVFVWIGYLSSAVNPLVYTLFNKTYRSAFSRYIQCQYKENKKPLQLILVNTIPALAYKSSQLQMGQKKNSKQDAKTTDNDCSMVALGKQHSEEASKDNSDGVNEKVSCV

H1R = H1R (Homo sapiens, UniProt P35367); assay: NIMH-PDSP radioligand binding, histamine H1 receptor
H1R, sequence (P35367 whole entry): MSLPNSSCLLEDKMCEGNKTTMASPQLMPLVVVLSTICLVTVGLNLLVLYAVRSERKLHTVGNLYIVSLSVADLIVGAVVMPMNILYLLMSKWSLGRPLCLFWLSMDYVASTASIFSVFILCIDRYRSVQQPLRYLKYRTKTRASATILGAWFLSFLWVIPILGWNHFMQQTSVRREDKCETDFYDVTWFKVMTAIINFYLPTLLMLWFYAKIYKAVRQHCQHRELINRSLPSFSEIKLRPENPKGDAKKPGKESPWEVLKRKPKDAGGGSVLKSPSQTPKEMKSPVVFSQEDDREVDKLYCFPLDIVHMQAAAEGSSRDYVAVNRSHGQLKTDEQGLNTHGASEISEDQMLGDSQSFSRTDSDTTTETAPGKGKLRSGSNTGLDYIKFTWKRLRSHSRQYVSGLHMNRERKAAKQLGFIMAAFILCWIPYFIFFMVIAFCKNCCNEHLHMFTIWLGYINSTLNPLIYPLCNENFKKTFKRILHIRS

5-HT7R = 5-HT7R (Homo sapiens, UniProt P34969); assay: NIMH-PDSP radioligand binding, 5-HT7 receptor
5-HT7R, sequence (P34969 whole entry): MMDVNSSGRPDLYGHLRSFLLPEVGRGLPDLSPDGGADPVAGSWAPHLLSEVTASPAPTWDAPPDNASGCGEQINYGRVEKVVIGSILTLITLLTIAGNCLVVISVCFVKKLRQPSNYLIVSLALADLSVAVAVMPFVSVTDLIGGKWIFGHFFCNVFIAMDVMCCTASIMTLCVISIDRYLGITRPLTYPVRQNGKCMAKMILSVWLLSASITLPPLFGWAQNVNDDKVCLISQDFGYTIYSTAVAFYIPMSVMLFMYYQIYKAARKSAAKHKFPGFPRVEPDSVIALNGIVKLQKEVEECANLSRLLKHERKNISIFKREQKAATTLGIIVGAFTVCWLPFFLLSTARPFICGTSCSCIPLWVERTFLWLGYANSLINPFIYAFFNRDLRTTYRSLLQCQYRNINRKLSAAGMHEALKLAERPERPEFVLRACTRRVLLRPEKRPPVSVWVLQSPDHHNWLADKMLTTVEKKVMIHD

5-HT1AR = 5-HT1AR (Homo sapiens, UniProt P08908); assay: NIMH-PDSP radioligand binding, 5-HT1A receptor
5-HT1AR, sequence (P08908 whole entry): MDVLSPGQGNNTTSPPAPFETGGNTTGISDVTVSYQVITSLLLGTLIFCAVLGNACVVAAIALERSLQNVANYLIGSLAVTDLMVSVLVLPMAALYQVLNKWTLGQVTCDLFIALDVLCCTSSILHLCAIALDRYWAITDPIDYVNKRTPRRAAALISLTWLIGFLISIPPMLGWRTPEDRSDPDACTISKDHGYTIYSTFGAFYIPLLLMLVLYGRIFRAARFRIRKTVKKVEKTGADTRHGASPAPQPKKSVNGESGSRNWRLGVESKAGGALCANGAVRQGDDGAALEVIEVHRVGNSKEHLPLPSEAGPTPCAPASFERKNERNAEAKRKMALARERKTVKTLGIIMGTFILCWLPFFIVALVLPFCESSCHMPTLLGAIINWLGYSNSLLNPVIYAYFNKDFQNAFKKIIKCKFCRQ

Row | Compound | Ki 5HT2CR (5-HT2CR) | Ki SERT (SERT) | Ki 5-HT2A (5-HT2AR) | SERT binding affinity (in words) (SERT) | further results
1 | O=C1NCN(c2ccccc2)C12CCN(CCCCc1nc3ccccc3s1)CC2 [Compound 7, 8-(4-(benzo[d]thiazol-2-yl)butyl)-1-phenyl-1,3,8-triazaspiro[4.5]decan-4-one] | MTA | MTA |  |  | 
2 | O=C(CCCCN1CCC2(CC1)C(=O)NCN2c1ccccc1)c1nc2ccccc2s1 [Compound 9] | MTA |  |  |  | 
3 | O=C1NCN(c2ccccc2)C12CCN(CCCCc1nc3ccccc3o1)CC2 [Compound 10, 8-(4-(benzo[d]oxazol-2-yl)butyl)-1-phenyl-1,3,8-triazaspiro[4.5]decan-4-one] | MTA | MTA | MTA | without significant affinity | 
4 | O=C1NCN(c2ccccc2)C12CCN(CCCCc1c[nH]c3ccccc13)CC2 [Compound 11, 8-(4-(1H-indol-3-yl)butyl)-1-phenyl-1,3,8-triazaspiro[4.5]decan-4-one] | MTA |  |  | high affinity | 5-HT2CR binding affinity (in words) (5-HT2CR): no significant affinity; H1R binding affinity (in words) (H1R): moderate binding
5 | O=C(CCCCN1CCN(C(c2ccc(F)cc2)c2ccc(F)cc2)CC1)c1nc2ccccc2s1 [Compound 17, 1-(benzo[d]thiazol-2-yl)-5-(4-(bis(4-fluorophenyl)methyl)piperazin-1-yl)pentan-1-one dihydrochloride] |  |  |  |  | pKi ± SE 5-HT7 (5-HT7R): 562.0/ 6.3±0.1
6 | Cl.O=C(CCCCN1C2CCC1CC(O)(c1ccc(Cl)cc1)C2)c1nc2ccccc2s1 (stereo not drawn) [Compound 22, 1-(Benzo[d]thiazol-2-yl)-5-(3-(4-chlorophenyl)-3-hydroxy-8-azabicyclo[3.2.1]octan-8-yl)-pentan-1-one hydrochloride] | MTA |  | MTA |  | Ki 5-HT1A (5-HT1AR): MTA
